We go through eleven compounds from paper PMC8835733, “PaOctβ2R: Identification and Functional Characterization of an Octopamine Receptor Activating Adenylyl Cyclase Activity in the American Cockroach Periplaneta americana” (International Journal of Molecular Sciences, 2022).

Values joined by “and” are separate entries in the source; they are usually repeats but may differ in a detail not shown here. Equal entries are not always repeated. Where two headings read alike, the source gives them in different places.

Experiment [1] has as its target (UniProt Z9G3U5DLY1). The experiment in a line: Antagonist inhibition of tyramine-activated PaOctβ2R-HA (cAMP via CNG channel / Fluo-4). It counts as cell-based, Periplaneta americana. As to conditions: 1 × 10^−7 M tyramine, 1 × 10^−4 M IBMX. As for the experimental part:
(§1) The reduction of cellular cAMP production, monitored as a decrease in Fluo-4 fluorescence (see Section 4.9), was quantified and normalized to the value obtained without adding antagonists (=100%). Normalized data were used to construct inhibitor concentration-response curves.
(§2) Ligand concentrations that led to half-maximal inhibition of PaOctβ2R-HA (IC50) were determined from the concentration-response curves.
(§3) A stably transfected cell line was established to examine PaOctβ2R-HA receptor activity by Ca^2+ imaging. Control measurements were performed in the parental (flpTM) cell line. Changes in [cAMP]i were registered indirectly via co-expressed CNG channels that are opened by cAMP and cause an influx of extracellular Ca^2+ [18, 26, 91]. Changes in [Ca^2+]i were monitored with the Ca^2+-sensitive fluorescent dye Fluo-4. Cells were grown in 96-well dishes to a density of approximately 2 × 10^4 cells per well and were loaded at room temperature with Fluo-4 AM as described previously. After 90 min, the loading solution was substituted for dye-free extracellular solution (ECS; 120 mM NaCl, 5 mM KCl, 2 mM MgCl2, 2 mM CaCl2, 10 mM HEPES, and 10 mM glucose, pH 7.4 (NaOH)) containing 100 µM 3-isobutyl-1-methylxanthine (IBMX; Sigma-Aldrich/Merck, Darmstadt, Germany) as an inhibitor of cell-endogenous phosphodiesterases. The plate was transferred into a fluorescence reader (FLUOstar Omega, BMG Labtech, Ortenberg, Germany) to monitor Fluo-4 fluorescence. The excitation wavelength was 485 nm. Fluorescence emission was detected at 520 nm. Concentration series of various biogenic amines and synthetic receptor ligands were added once Fluo-4 fluorescence had reached a stable value in each well. The changes in Fluo-4 fluorescence were recorded automatically. Concentration-response curves were established from at least three independent experiments. Data points were derived from four-fold or eightfold determination.

The subject of experiment [2] is PaOctβ2R-HA. The description is as above. In kind it is cell-based, Periplaneta americana. The following applies: 1 × 10^−7 M tyramine; for Maximal Inhibition of tyramine-activated PaOctβ2R-HA activity: 1 × 10^−4 M IBMX. As for the experimental part:
as §1, §2, §3

Experiment [3] has as its target (UniProt Z9G3U5DLY1). The experiment in a line: Antagonist inhibition of octopamine-activated PaOctβ2R-HA (cAMP via CNG channel / Fluo-4). It counts as cell-based, Periplaneta americana. The following applies: 1 × 10^−9 M octopamine, 1 × 10^−4 M IBMX. The procedure: as §1, §2, §3
In experiment [4] the test system is PaOctβ2R-HA. The experiment is described as above. It counts as cell-based, Periplaneta americana. The following applies: 1 × 10^−9 M octopamine; for Maximal Inhibition of octopamine-activated PaOctβ2R-HA activity: 1 × 10^−4 M IBMX. The procedure:
as §1, §2, §3

The subject of experiment [5] is PaOctβ2R-HA. The experiment can be described thus: Agonist-evoked cAMP production in PaOctβ2R-HA-expressing flpTM cells (CNG channel / Fluo-4 Ca2+ imaging). In kind it is cell-based, Periplaneta americana. The following applies: for increase in [cAMP]i in PaOctβ2R-HA-expressing cells: biogenic amines at 0.1 and 1 µM; for increase in [cAMP]i in PaOctβ2R-HA-expressing cells / concentration at which the concentration-response curve saturated: 100 µM IBMX; for concentration at which the concentration-response curve saturated: flpTM + PaOctβ2R-HA cells.
Text: (§4) These insect receptors are preferentially activated by octopamine and to a certain extent by tyramine as well. In a first series of experiments, we thus examined the ability of different biogenic amines, i.e., octopamine, tyramine, dopamine, histamine, and serotonin, to evoke PaOctβ2R-HA-dependent cAMP production in receptor-expressing as well as in the parental (flpTM) cell line. Increasing [cAMP]i cause opening of the CNG channels and influx of extracellular Ca^2+ which was detected by the Ca^2+-sensitive dye FLUO-4.
(§5) In a next step, concentration series of octopamine and tyramine ranging from 10^−12 M to 10^−7 M for octopamine and 10^−11 M to 10^−6 M for tyramine were applied to the cell lines. The fluorescence signals were normalized to values obtained in flpTM + PaOctβ2R-HA cells with the highest ligand concentration (=100%) and used to calculate concentration response curves for the receptor (Figure 6; Table 1).
(§6) Cells were transfected with 10 µg of the pcPaOctβ2R-HA construct by a modified calcium phosphate method following a previously established protocol. Transfected cells were selected in the presence of the antibiotics G418 (1 mg/mL) and hygromycin (100 µg/mL).
as §3

For experiment [6], the system named is flpTM cells. The experiment can be described thus: Control measurements in parental (non-transfected) flpTM cells (cAMP via CNG channel / Fluo-4). It counts as cell-based, human. As to conditions: concentration series of octopamine or tyramine; 100 µM IBMX.
Text: as §4, with “FLUO-4. No stimulation of adenylyl cyclase activity was recorded in flpTM cells when incubated with 0.1 or 1 µM concentrations of biogenic amines (Figure 5A). […]” for “FLUO-4.”
A stably transfected cell line was established to examine PaOctβ2R-HA receptor activity by Ca^2+ imaging. […] Changes in [Ca^2+]i were monitored with the Ca^2+-sensitive fluorescent dye Fluo-4. […] The plate was transferred into a fluorescence reader (FLUOstar Omega, BMG Labtech, Ortenberg, Germany) to monitor Fluo-4 fluorescence. […] Fluorescence emission was detected at 520 nm. Concentration series of various biogenic amines and synthetic receptor ligands were added once Fluo-4 fluorescence had reached a stable value in each well. The changes in Fluo-4 fluorescence were recorded automatically. […]

Experiment [7] concerns the target (UniProt Z9G3U5DLY1). The experiment can be described thus: Agonist-evoked cAMP production in PaOctβ2R-HA-expressing flpTM cells (CNG channel / Fluo-4 Ca2+ imaging). It counts as cell-based, Periplaneta americana. The following applies: 100 µM IBMX.
Text: as §4, §5, §6, §3
(cAMP levels reflect the balance of adenylyl cyclase and phosphodiesterase activity.)

[8] abbreviates: read-out: IC50, half-maximal inhibition of tyramine-activated PaOctβ2R-HA.
[9] abbreviates: read-out: pIC50 ± SD, tyramine-activated PaOctβ2R-HA (converted).
Where [10] appears, read: read-out: IC50, half-maximal inhibition of octopamine-activated PaOctβ2R-HA.
The mark [11] stands for this setting: read-out: pIC50 ± SD, octopamine-activated PaOctβ2R-HA (converted).
Where [12] appears, read: mean of n = 5 experiments, flpTM + PaOctβ2R-HA cells, read-out: EC50, mean value for half-maximal stimulation of PaOctβ2R-HA.
[13] abbreviates: mean of n = 5 experiments, flpTM + PaOctβ2R-HA cells, read-out: pEC50 ± SD, half-maximal stimulation of PaOctβ2R-HA (converted).
The mark [14] stands for this setting: single representative eight-fold determination, read-out: EC50, half maximal activation of PaOctβ2R-HA (representative experiment, Figure 6).

Turning to `O=C(c1ccc(F)cc1)C1CCN(CCn2c(=O)[nH]c3ccccc3c2=O)CC1` [ketanserin], the IC50 is 1680 nM in experiment [1] (setting [8]), 1710 nM in experiment [1] (setting [9]), 5120 nM in experiment [3] (setting [10]) and 5120 nM in experiment [3] (setting [11]). In addition, in experiment [2], the “Maximal Inhibition of tyramine-activated PaOctβ2R-HA activity” value is 50%. In addition, the “Maximal Inhibition of octopamine-activated PaOctβ2R-HA activity” value in experiment [4] is 80%; in experiment [4] (listed as Ketanserin), “approximately 80%”.

As for `CCCN(CCC)C1CCc2cccc(O)c2C1` (centres unmarked) [8-OH-DPAT, 8-hydroxy-2-(dipropylamino)tetralin], the “effect on tyramine-stimulated PaOctβ2R-HA activity (in words)” value in experiment [2] is reported as “did not impair”. Moreover, in experiment [4], the “effect on octopamine-stimulated PaOctβ2R-HA activity (in words)” value is recorded as “did not impair”.

Turning to `NCCc1c[nH]c2ccc(O)cc12` [serotonin, 5-hydroxytryptamine], the “increase in [cAMP]i in PaOctβ2R-HA-expressing cells” value (“increase in [cAMP]i” for short) in experiment [5] was “Neither dopamine, histamine nor serotonin caused an increase in [cAMP]i”.

For the compound `COC(=O)[C@@H]1[C@H]2C[C@H]3c4[nH]c5ccccc5c4CCN3C[C@@H]2CC[C@@H]1O` [yohimbine], the “effect on tyramine-stimulated PaOctβ2R-HA activity (in words)” value in experiment [2] was “did not impair”. Further, in experiment [4], the “effect on octopamine-stimulated PaOctβ2R-HA activity (in words)” value is “did not impair”.

In the case of `NCCc1ccc(O)c(O)c1` [dopamine], in experiment [5], the “increase in [cAMP]i” value was “Neither dopamine, histamine nor serotonin caused an increase in [cAMP]i”.

Consider `NCCc1ccc(O)cc1` [tyramine], for which, in experiment [6], the “change in the fluorescence signal in non-transfected flpTM cells” value is “no change in the fluorescence signal was observed”. In addition, the EC50 is 43 nM in experiment [7] (setting [12]), 40.7 nM in experiment [7] (setting [13]) and 36.8 nM in experiment [7] (setting [14]). The “increase in [cAMP]i” value in experiment [5] is “showed increasing [cAMP]i”. In addition, in experiment [5], the “concentration at which the concentration-response curve saturated” value is reported as ≥ 10^−7 M.

Turning to `COc1ccc2[nH]cc(CCN)c2c1` [5-MT, 5-methoxytryptamine], the “effect on tyramine-stimulated PaOctβ2R-HA activity (in words)” value in experiment [2] is on record as “did not impair”. In addition, in experiment [4], the “effect on octopamine-stimulated PaOctβ2R-HA activity (in words)” value is recorded as “did not impair”.

As to `NCCc1c[nH]cn1` [histamine], the “increase in [cAMP]i” value in experiment [5] is “Neither dopamine, histamine nor serotonin caused an increase in [cAMP]i”.

Turning to `Cc1ccc(N(CC2=NCCN2)c2cccc(O)c2)cc1` [phentolamine], the IC50 in experiment [1] (setting [8]) is 256 nM; in experiment [1] (setting [9]), 255 nM; in experiment [3] (setting [10]), 257 nM; in experiment [3] (setting [11]), 247 nM. Besides, in experiment [2], the “Maximal Inhibition of tyramine-activated PaOctβ2R-HA activity” value amounted to 100%. Moreover, the “Maximal Inhibition of octopamine-activated PaOctβ2R-HA activity” value in experiment [4] was found to be 100%.

On to `NC1=NCC2c3ccccc3Cc3ccccc3N12` (centres unmarked) [epinastine], for which the IC50 was ~13 nM and 13 nM in experiment [1] (setting [8]); 11.2 nM in experiment [1] (setting [9]); ~12 nM and 12 nM in experiment [3] (setting [10]); 11.4 nM in experiment [3] (setting [11]). Also, the “Maximal Inhibition of tyramine-activated PaOctβ2R-HA activity” value in experiment [2] amounted to 100%. Moreover, the “Maximal Inhibition of octopamine-activated PaOctβ2R-HA activity” value in experiment [4] was found to be 100%.

`NCC(O)c1ccc(O)cc1` (centres unmarked) [octopamine]: the “change in the fluorescence signal in non-transfected flpTM cells” value in experiment [6] is “no change in the fluorescence signal was observed”. Moreover, the values for the EC50 in experiment [7] (setting [12]), in experiment [7] (setting [13]) and in experiment [7] (setting [14]) were 0.467 nM, 0.447 nM and 0.297 nM, respectively. The “increase in [cAMP]i” value in experiment [5] was “showed increasing [cAMP]i”. Besides, the “concentration at which the concentration-response curve saturated” value in experiment [5] is listed as ≥ 10^−9 M. Further, in experiment [5] (octopamine vs tyramine potency), the “preference (selectivity) of PaOctβ2R-HA for octopamine over tyramine” value was 100 fold and ~ 100 fold.
